Results as given in publication PMC9241057, “Ru(II)arene(N^N bpy/phen)-based RAPTA complexes for in vitro anti-tumour activity in human glioblastoma cancer cell lines and in vivo toxicity studies in a zebrafish model” (RSC Advances, 2022).

Legend:
Conductivity measurement = format: physicochemical; details: 3 x 10^-5 M; for Conductivity (ΛM) 10% aq DMSO: in 10% aq DMSO; for Conductivity (ΛM) DMSO: in DMSO
Text: concentrations gradually.
Origin Lab, version 8.5 was
equation (v) given below: […]
Conductivity measurement 7
complexes with DMSO and aqueous DMSO.
followed the previously described procedure. An orbital shaker was used to shake a known
Different ratios (0.5:1, 1:1,
saturated n-octanol to get the partition coefficient. The absorbance of aliquots of the aqueous

U87MG cells = assay: Cell cycle analysis by flow cytometry; format: cell-based, human; details: 0.93 μM
Method: As per the results of the MTT assay, there was an inhibition of cell proliferation that was further validated by determining the cellular damage, DNA damage and oxidative stress. Therefore, we went forward to investigate the DNA content by flow cytometry. […] We also observed a low S phase and M phase after the complex treatment (Fig. 4).
Fig. 4 Cell cycle analysis with the control U87MG cells (above) and the treatment of 0.93 μM 4d (below). TEXT PRINTED IN THE PICTURE: 4d: G0-G1(70.49%); S(21.32%); M(2.49%); Sub G1(3.48%) DOUBTS OF THE COPYIST ABOUT THIS PICTURE: 4d, G0-G1: 70.49% - blurred print, 9 could be 8 / 4d, S: 21.32% - blurred print, 3 could be 8 / 4d, M: 2.49% - blurred print, 9 could be 8 / 4d, Sub G1: 3.48% - blurred print, 3 and 8 not certain (3.46 or 3.48) / The Control plots (untreated cells, not a substance) print P2(43.61%), P3(29.04%), P4(24.36%), Sub G1(6.24%); these are left out of the lines, and their digits are blurred too

EtBr-bound DNA (Ct-DNA) = assay: EtBr displacement assay (fluorescence); format: binding, calf; details: for Ksv, Stern-Volmer quenching constant: EtBr-bound DNA; for Kapp, apparent DNA binding constant: competitive displacement of EtBr
Method: Ethidium bromide displacement assay […]
bromide (EtBr) displacement experiment was used.3 Using ethidium bromide (EtBr) as a spectral probe in 5 mM Tris-HCl buffer, the apparent binding constant (K app) of the RAPTA complex 4c to Ct-DNA was determined at pH = 7.4. Because the fluorescence of EtBr was quenched by the solvent molecules, it was unable to show any fluorescence in its free state.
However, in the presence of Ct-DNA, its fluorescence intensity began to increase, indicating that EtBr binds to DNA […] in an intercalative manner. With increasing concentrations of […]
complexes displaced EtBr from CT-DNA grooves and were linked to the DNA base pairs itself. The values of the apparent binding constant (K app) were obtained by using the equation […]
Kapp × [Complex]50 = kEtBr × [EtBr]⋯⋯⋯(iii)
Where KEtBr is the EtBr binding constant (K EtBr = 1.0 x 107 M-1), and [EtBr] = 8 x 10^-6 M.
Stern-Volmer equation was followed for quantitative determination of the Stern-Volmer quenching constant (K SV).4 Origin (8.5) software was used to plot the fluorescence data to obtain linear plot of I0/I vs. [complex]. The value of KSV was calculated from the following […]
Where I0 = fluorescence intensity in absence of complex and I = fluorescence intensities in presence of complex of concentration [Q]. […]

[1] = tested on: TNF-α-induced NF-κB phosphorylation; assay: Real-time RT-PCR; format: cell-based, human; details: glioma cells, 48 h
Text: It is known that the NF-κB pathway plays an important role in the modulation of inflammatory and immune responses.[25] Under normal conditions, NF-κB is found in the cytoplasm as the dimer complex p65/p50 with the kappa B inhibitor forming the NF-κB-IκB complex which involves TNF-α. As expected, the treatment with TNF-α induces IκB protein phosphorylation and the NF-κB dimer p65/p50 is translocated into the nucleus. Inside the nucleus, the NF-κB dimer binds to its own DNA and the κB site, initiating the transcription of many genes associated with proliferation as well as the invasion of cells, anti-apoptosis along with drug resistivity (e.g., Bcl-2 family, Bcl-XL, cyclin D1, c-myc, interleukin-1 and 6 (IL-6), cyclooxygenase-2 (COX-2), inducible NO-synthase (iNOS)). Complex 4c reduced TNF-α-induced NF-κB phosphorylation at 48 h. In summary, complex 4c inhibited the TNF-α-induced NF-κB phosphorylation in glioma cells and NF-κB could be validated as a targeted therapeutic molecule for tumour diseases (Fig. S5 ^†).
Cultured cells U87MG and T98G were treated with various concentrations of 4c (20–160 μM) for 48 h. Total RNA was extracted and complementary DNA (cDNA) was transcribed using Qiazol reagent and Thermo Scientific Revert Aid First Strand cDNA Synthesis Kit. […] The amplified products were analyzed by a melting curve analysis.

zebrafish = assay: In vivo biodistribution study in zebrafish; details: 25 μg g^−1, 15 minutes
Method: Biodistribution and sequestration studies of complex 4c were conducted via the caudal vein injection into the zebrafish. After 15 minutes (25 μg g^−1) of exposure, the fish were sacrificed and different organs (brain, heart, kidney, intestine, notochord and digestive system) were dissected and the biodistribution of this complex into these organs was measured by fluorescence microscopy. A comparative study was performed with complex 4c and Evans blue dye and was analyzed by the confocal imaging of the tissue sections. From this experiment, it was observed that the sensitivity of zebrafish towards 4c was sequestered in the brain, heart, kidney, intestine, notochord and digestive system. […] Furthermore, this fluorescence-based interaction could provide us with an idea of the uptake mechanism via crossing the blood–brain barrier.
Zebrafish were anesthetized with 2-phenoxyethanol and injected with complex 4cvia […]. After injection at different times, the fish were sacrificed and the organs were collected and fixed with 4% paraformaldehyde and 4% glutaraldehyde, followed by dehydration with the gradient increase of ethanol (75%, 95%, 100%) for 20 min each, further with xylene for 1 h and then fixed in Paraplast. […] Sequestration of complex 4c in different organs was investigated by confocal fluorescence microscopy using a CLSM (Zeiss LSM 710) microscope. […]

zebrafish embryos = details: embryos exposed for 5 h to 100 μM
Method: Zebrafish were purchased from Zebrafish CRO, Pentagrit Discovery, Chennai 600100. All the procedures were conducted with reference to the guidelines of OECD 203 (OECD 203, 1992).[29] The local wild-type zebrafish strain weighing approximately 500–600 mg (2–3 months old) were maintained under standard laboratory conditions at 28 °C under a 14 : 10 h light/dark cycle with the conductivity of the water being 350 μS, maintained at pH 7.2–7.4. All the animal experiments including surgical procedures were conducted according to the procedures of the Committee for the Purpose of Control and Supervision of Experiments on Animals (CPCSEA), Govt. of India, as instructed by Institutional Animal ethical guidelines (VIT/IAEC/2019/16/Aug10/15), VIT University.[29] All animal procedures were performed in accordance with the Guidelines for Care and Use of Laboratory Animals of “VIT” University and approved by the Animal Ethics Committee of “VIT”.
Freshly laid eggs [<1 h post-fertilisation (hpf)] were transferred to 50 ml crystallising dishes filled with the respective test solutions. After the successful control of fertilisation, the eggs were separately transferred to 24-well plates with 2 ml of test solution per well. […] The embryos were analysed under an Olympus CKX41 inverted microscope (Olympus, Hamburg, Germany).

Solubility = details: DMSO-10% DMEM medium (1:99 v/v, comparable to cell media)
[2] = n-Octanol/water partition coefficient, shake-flask method
Method: n-Octanol–water partition coefficient (log P o/w)8
Using the previously reported shake flask approach, the log Po/w of the RAPTA complexes
amount of each complexes in water (pre-saturated with n-octanol). The solution was
centrifuged at 3000 rpm for 10 minutes to allow phase separation. Different ratios (0.5:1, 1:1,
and 2:1) of saturated solutions were shaken for 20 minutes on an orbital shaker with pre-
and octanol layers were measured with a UV-Vis spectrophotometer after adequate dilution.
The concentrations of the complexes in each layer were estimated using the corresponding
molar extinction coefficients, and the partition coefficient (log Po/w) values were computed

Structure (SMILES)	Conductivity (ΛM) 10% aq DMSO (Conductivity measurement) [S cm2 mol-1]	Conductivity (ΛM) DMSO (Conductivity measurement) [S cm2 mol-1]	G0/G1 phase (U87MG cells) [%]	Ksv, Stern-Volmer quenching constant (EtBr-bound DNA (Ct-DNA)) [M⁻¹]	Ksv, Stern-Volmer quenching constant (EtBr-bound DNA (Ct-DNA); Table S2) [M⁻¹]	Kapp, apparent DNA binding constant (EtBr-bound DNA (Ct-DNA)) [M⁻¹]	Kapp, apparent DNA binding constant (EtBr-bound DNA (Ct-DNA); Table S2) [M⁻¹]	TNF-α-induced NF-κB phosphorylation [1]	accumulation in the brain (zebrafish)	sequestration in digestive system, kidney and notochord (zebrafish)	morbidity or mortality of embryos (zebrafish embryos)	solubility (Solubility) [mM]	log P (partition coefficient in n-octanol/water) [2]
C1N2CN3CN1CP(C2)C3.Cc1ccc(C(C)C)cc1.F[P-](F)(F)(F)(F)F.F[P-](F)(F)(F)(F)F.[Ru+2].c1ccc(-c2ccnc3c2ccc2c(-c4ccccc4)ccnc23)cc1 [4d, [(η^6-p-Cymene)Ru^II(κ^2-N,N-4,7diphenylphenanthroline)(PTA)]·2PF6]	77	74	~70.49										
C1N2CN3CN1CP(C2)C3.Cc1ccc(C(C)C)cc1.Cc1ccnc2c1ccc1c(C)ccnc12.F[P-](F)(F)(F)(F)F.F[P-](F)(F)(F)(F)F.[Ru+2] [4c, [(η^6-p-Cymene)Ru^II(κ^2-N,N-4,7dimethylphenanthroline)(PTA)]·2PF6]	78	76		180	180	1.38e+06	1.38e+06	reduced	accumulation was significant	maximum sequestration	No significant morbidity or mortality	18	0.30±0.04
